# Laboratory results: PubChem BioAssay (NCI)
# “And” between values parts separate entries of the source, which are not always exact repeats. Identical values can stand only once.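 Assay format: 96-well plates, 48-hour exposure. GI50: concentration for 50% inhibition of growth. TGI: total growth inhibition.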
# How the values were obtained:
# Assay in all cases: NCI anticancer screen, dose series, 48 h
# [1] = test system: CCRF-CEM leukemia
# [2] = test system: MOLT-4 leukemia
# [3] = test system: SNB-19 CNS
# [4] = test system: LOX IMVI melanoma
# [5] = test system: KM12 colon
# [6] = test system: HOP-92 NSCLC
# [7] = test system: HOP-62 NSCLC
# [8] = test system: HT29 colon
# [9] = test system: SNB-75 CNS
# [10] = test system: 786-0 renal
# [11] = test system: OVCAR-4 ovarian
# [12] = test system: OVCAR-3 ovarian
# [13] = test system: NCI-H460 lung
# [14] = test system: M14 melanoma
# [15] = test system: CAKI-1 renal
# [16] = test system: HS 578T breast
# [17] = test system: TK-10 renal
# [18] = test system: DU-145 prostate
# [19] = test system: BT-549 breast
# [20] = test system: A498 renal
# [21] = test system: HCT-116 colon
# [22] = test system: MDA-MB-435
# [23] = test system: UACC-257 melanoma
# [24] = test system: MDA-MB-231 breast
# [25] = test system: T-47D breast
# [26] = test system: ACHN renal
# [27] = test system: UACC-62 melanoma
# [28] = test system: NCI-H226 lung
# [29] = test system: SN12C renal
# [30] = test system: SF-268 CNS
# [31] = test system: OVCAR-5 ovarian
# [32] = test system: HCC-2998 colon
# [33] = test system: NCI-H522 lung
# [34] = test system: IGROV1 ovarian
# [35] = test system: SR leukemia
# [36] = test system: NCI-H23 lung
# [37] = test system: SF-295 CNS
# [38] = test system: SF-539 CNS
# [39] = test system: COLO 205 colon
# [40] = test system: NCI/ADR-RES ovarian
# [41] = test system: EKVX NSCLC
# [42] = test system: RXF 393 renal
# [43] = test system: SK-MEL-5 melanoma
# [44] = test system: PC-3 prostate
# [45] = test system: U251 CNS
# [46] = test system: MCF7 breast
# [47] = test system: SW-620 colon
# [48] = test system: SK-OV-3 ovarian
# [49] = test system: HL-60(TB) leukemia
# [50] = test system: HCT-15 colon
# [51] = test system: UO-31 renal
# [52] = test system: K-562 leukemia
# [53] = test system: A549 NSCLC
# [54] = test system: SK-MEL-2 melanoma
# [55] = test system: RPMI-8226 leukemia
# [56] = test system: OVCAR-8 ovarian
# [57] = test system: SK-MEL-28 melanoma
# [58] = test system: MALME-3M melanoma
structure (smiles),measurement,setting,value
NS(=O)(=O)c1ccc(N=Cc2c(O)[nH]c3ccc4ncsc4c23)cc1,GI50,[1],0.793 µM and 0.699 µM
same,TGI,[1],> 25 µM
same,GI50,[2],0.476 µM and 0.886 µM
same,TGI,[2],1.57 µM and 4.26 µM
same,GI50,[3],0.885 µM and 2.16 µM
same,TGI,[3],> 25 µM
same,GI50,[4],0.85 µM and 2.13 µM
same,TGI,[4],> 25 µM
same,GI50,[5],0.566 µM and 1.97 µM
same,TGI,[5],8.58 µM and 18.4 µM
same,GI50,[6],1.72 µM
same,TGI,[6],> 7.33 µM
same,GI50,[7],0.887 µM and 3.49 µM
same,TGI,[7],4.17 µM and 15.1 µM
same,GI50,[8],3.5 µM and 8.16 µM
same,TGI,[8],> 25 µM
same,GI50,[9],0.857 µM and 3.64 µM
same,TGI,[9],2.61 µM and 10 µM
same,GI50,[10],1.02 µM and 3.67 µM
same,TGI,[10],> 25 µM and 18.8 µM
same,GI50,[11],0.821 µM and 1.87 µM
same,TGI,[11],2.92 µM and 16.1 µM
same,GI50,[12],0.189 µM and 0.756 µM
same,TGI,[12],> 6.36 µM and 3.42 µM
same,GI50,[13],0.764 µM and 5.92 µM
same,TGI,[13],> 25 µM
same,GI50,[14],2.08 µM and 4.14 µM
same,TGI,[14],6.99 µM and 9.39 µM
same,GI50,[15],5.85 µM and 6.52 µM
same,TGI,[15],> 25 µM
same,GI50,[16],0.783 µM and 1.04 µM
same,TGI,[16],> 7.17 µM
same,GI50,[17],4.2 µM and 7.65 µM
same,TGI,[17],17.1 µM and 19.1 µM
same,GI50,[18],0.394 µM and 3.03 µM
same,TGI,[18],> 25 µM
same,GI50,[19],0.693 µM and 2.34 µM
same,TGI,[19],2.06 µM and 9.04 µM
same,GI50,[20],3.69 µM and 6.71 µM
same,TGI,[20],9.95 µM and 14.7 µM
same,GI50,[21],0.845 µM and 1.78 µM
same,TGI,[21],> 25 µM
same,GI50,[22],2.44 µM and 3.76 µM
same,TGI,[22],> 19.5 µM and 18.4 µM
same,GI50,[23],3.11 µM and 6.09 µM
same,TGI,[23],19 µM and 16.6 µM
same,GI50,[24],1.06 µM and 5.66 µM
same,TGI,[24],> 25 µM
same,GI50,[25],0.781 µM and 2.36 µM
same,TGI,[25],2.16 µM and > 20 µM
same,GI50,[26],2.2 µM and 5.31 µM
same,TGI,[26],> 25 µM
same,GI50,[27],1.05 µM and 3.67 µM
same,TGI,[27],4.71 µM and 9.09 µM
same,GI50,[28],0.931 µM and 2.94 µM
same,TGI,[28],6.26 µM and 15.5 µM
same,GI50,[29],0.982 µM and 3.21 µM
same,TGI,[29],> 25 µM
same,GI50,[30],0.678 µM and 0.792 µM
same,TGI,[30],2.28 µM and 2.72 µM
same,GI50,[31],2.91 µM and 7.56 µM
same,TGI,[31],> 25 µM
same,GI50,[32],0.751 µM and 1.41 µM
same,TGI,[32],3.87 µM and 7.05 µM
same,GI50,[33],0.508 µM and 0.532 µM
same,TGI,[33],1.58 µM and 1.88 µM
same,GI50,[34],6.53 µM and 8.83 µM
same,TGI,[34],> 25 µM
same,GI50,[35],0.213 µM and 0.518 µM
same,TGI,[35],> 5.71 µM and 2.11 µM
same,GI50,[36],1.11 µM and 3.98 µM
same,TGI,[36],7.24 µM and 15.7 µM
same,GI50,[37],4.02 µM and 7.28 µM
same,TGI,[37],> 23.2 µM
same,GI50,[38],0.626 µM and 1.08 µM
same,TGI,[38],2 µM and 4.91 µM
same,GI50,[39],1.36 µM and 3.84 µM
same,TGI,[39],5.03 µM and 9.19 µM
same,GI50,[40],3.5 µM and 5.42 µM
same,TGI,[40],> 25 µM
same,GI50,[41],7.91 µM and 8.52 µM
same,TGI,[41],> 25 µM
same,GI50,[42],0.856 µM and 2.12 µM
same,TGI,[42],2.47 µM and 7.85 µM
same,GI50,[43],1.04 µM and 2.74 µM
same,TGI,[43],> 10.5 µM and 15.3 µM
same,GI50,[44],3.1 µM and 2.08 µM
same,TGI,[44],> 22.9 µM
same,GI50,[45],0.715 µM and 1.63 µM
same,TGI,[45],> 8.07 µM
same,GI50,[46],0.755 µM and 1.77 µM
same,TGI,[46],> 24 µM
same,GI50,[47],0.891 µM and 1.8 µM
same,TGI,[47],> 21.9 µM
same,GI50,[48],3.84 µM and 9.75 µM
same,TGI,[48],> 25 µM
same,GI50,[49],1.57 µM and 1.93 µM
same,TGI,[49],4.1 µM and 4.79 µM
same,GI50,[50],7.16 µM and 7.13 µM
same,TGI,[50],> 25 µM and 24.5 µM
same,GI50,[51],4.51 µM and 6.2 µM
same,TGI,[51],> 21.3 µM
same,GI50,[52],1.27 µM and 2.19 µM
same,TGI,[52],> 25 µM
same,GI50,[53],5.02 µM and 9.11 µM
same,TGI,[53],> 25 µM
same,GI50,[54],0.644 µM and 1.15 µM
same,TGI,[54],1.36 µM and 3.07 µM
same,GI50,[55],5.6 µM and 7.17 µM
same,TGI,[55],> 21.2 µM
same,GI50,[56],0.75 µM and 1.73 µM
same,TGI,[56],> 25 µM
same,GI50,[57],0.858 µM and 2.49 µM
same,TGI,[57],2.55 µM and 10.9 µM
same,GI50,[58],1.44 µM and 2.27 µM
same,TGI,[58],10.7 µM and > 19 µM
